{"source": "patent US20150276767A1", "about": "“SYSTEMS AND METHODS FOR IDENTIFYING CANCERS HAVING ACTIVATED PROGESTERONE RECEPTORS” (THE UNIVERSITY OF SYDNEY, priority 2014, published 2015)", "key": {"[1]": {"test_system": "progesterone receptor (PR) binding to genomic regions in T-47D breast cancer cells", "assay": "ChIP-PCR of PR binding regions in T-47D cells", "assay_type": "cell-based, human", "protocol": "Cells were cultured to 80% confluency in 15 cm tissue culture dishes, then treated for 45 minutes with 10 nM ORG2058 or vehicle. Chromatin was subsequently cross-linked by the addition of formaldehyde to the culture medium to a final concentration of 1% and incubation for 10 minutes at 37° C. Media were immediately removed and the cells were washed with cold phosphate buffered saline and harvested by scraping. Cells were collected by centrifugation and pellets were lysed 10 minutes at 4° C. in SDS buffer (1% SDS; 10 mM EDTA; 50 mM Tris-HCl, pH 8). The lysates were sonicated at 4° C. with a Branson 450 sonicator, using seven one minute bursts at 40% amplitude and 60% duty, each separated by a rest of at least one minute. Lysates were centrifuged at 13,000×g at 4° C. for 15 minutes to remove debris. […] Supernatants were diluted 1:10 with IP buffer (0.5% NP-40; 50 mM Tris, pH 8; 120 mM NaCl; 0.5 mM PMSF; Complete protease inhibitor cocktail, Roche, Ryde, Australia) and pre-cleared by incubation with Dynabeads M-280 sheep anti-mouse IgG magnetic beads (Invitrogen, Mulgrave, Australia), with gentle rotation at 4° C. for at least 2 h to reduce non-specific binding to the secondary antibody beads. Genomic DNA fragments that were bound to PR were isolated by rotation overnight at 4° C. with in-house hPRa6 and hPRa7 mouse monoclonal anti-PR antibodies and fresh sheep anti-mouse IgG magnetic beads (40 ul per 1.4 ml diluted lysate). Beads were washed sequentially with IP buffer, high salt wash buffer (0.5% NP-40, 50 mM Tris, pH 8, 500 mM NaCl, 0.5 mM PMSF), lithium wash buffer (250 mM LiCl, 0.5% NP-40, 1% sodium deoxycholate, 1 mM EDTA, pH 8, 10 mM Tris-HCl, pH 8) and TE (10 mM Tris, pH 8, 1 mM EDTA). Isolated DNA fragments were eluted twice for 15 minutes at room temperature using elution buffer (1% SDS, 0.1M NaHCO3). Cross-links were reversed by addition of 0.25M NaCl and heating to 65° C. for at least 6 h. DNA fragments were purified using Qiagen PCR purification columns (Qiagen, Doncaster, Australia). DNA fragments isolated by PR chromatin immunoprecipitation from ORG2058 treated cells were sequenced on an Illumina GA-IIx sequencer at the Ramaciotti Centre for Gene Function Analysis (University of New South Wales, Australia) and GeneWorks (Hindmarsh, Australia). Input DNA isolated from the pre-cleared ORG2058 treated samples were sequenced as a baseline control. An aliquot of DNA was isolated from the ORG2058-treated, pre-cleared sample, to serve as an input DNA control sample in next-generation sequencing.\n(§1) Directed ChIP was performed using the same protocol as described for ChIP-seq. Target templates were quantitated using Platinum Sybr Green reagents (Invitrogen) in a RotorGene 6000 real-time PCR machine. Directed ChIP was carried out as described above and purified gDNA fragments were diluted 2 to 5-fold prior to quantitation by real-time qPCR.\nWe conducted ChIP-PCR in T-47D cells and a second breast cancer cell line HCC1428, with ORG2058, onapristone, their combination or vehicle. The concentrations used were 1 nM ORG2058 and 100 nM onapristone."}, "[2]": {"test_system": "progesterone receptor (PR) binding to genomic regions in HCC1428 breast cancer cells", "assay": "ChIP-PCR of PR binding regions in HCC1428 cells", "assay_type": "cell-based, human", "protocol": "Cells were cultured to 80% confluency in 15 cm tissue culture dishes, then treated for 45 minutes with 10 nM ORG2058 or vehicle. Chromatin was subsequently cross-linked by the addition of formaldehyde to the culture medium to a final concentration of 1% and incubation for 10 minutes at 37° C. Media were immediately removed and the cells were washed with cold phosphate buffered saline and harvested by scraping. Cells were collected by centrifugation and pellets were lysed 10 minutes at 4° C. in SDS buffer (1% SDS; 10 mM EDTA; 50 mM Tris-HCl, pH 8). The lysates were sonicated at 4° C. with a Branson 450 sonicator, using seven one minute bursts at 40% amplitude and 60% duty, each separated by a rest of at least one minute. Lysates were centrifuged at 13,000×g at 4° C. for 15 minutes to remove debris. […]\nas §1, with “qPCR. […]” for “qPCR.”"}, "[3]": {"test_system": "progestin-regulated genes in T-47D cells", "assay": "Expression profiling in T-47D cells", "assay_type": "cell-based, human", "protocol": "(§2) Total RNA was isolated using RNAqueous purification columns (Invitrogen). Total RNA (500 ng) was amplified and biotin labelled using Illumina TotalPrep reagents (Invitrogen). The amplified samples (750 ng) were hybridized to human whole genome HT-12 gene expression bead arrays using the recommended Illumina reagents and following the manufacturer's protocol. Raw data were analysed using Genome Studio software (Illumina). After background subtraction data and cubic spline normalization, differential expression p values were determined using the Illumina custom model of Genome Studio. Data were further analysed using Microsoft Excel and SPSS statistical software. Hierarchical clustering and self organizing map clustering were performed using GenePattern.\n(§3) Onapristone ablated progestin regulation of all but 5 genes in T-47D and 6 genes in HCC1428."}, "[4]": {"test_system": "progestin-regulated genes in HCC1428 cells", "assay": "Expression profiling in HCC1428 cells", "assay_type": "cell-based, human", "details": "onapristone with 1 nM ORG2058", "protocol": "as §2, §3"}, "[5]": {"target": "T1, PR (Homo sapiens, UniProt P06401)", "T1 sequence (P06401 1-933)": "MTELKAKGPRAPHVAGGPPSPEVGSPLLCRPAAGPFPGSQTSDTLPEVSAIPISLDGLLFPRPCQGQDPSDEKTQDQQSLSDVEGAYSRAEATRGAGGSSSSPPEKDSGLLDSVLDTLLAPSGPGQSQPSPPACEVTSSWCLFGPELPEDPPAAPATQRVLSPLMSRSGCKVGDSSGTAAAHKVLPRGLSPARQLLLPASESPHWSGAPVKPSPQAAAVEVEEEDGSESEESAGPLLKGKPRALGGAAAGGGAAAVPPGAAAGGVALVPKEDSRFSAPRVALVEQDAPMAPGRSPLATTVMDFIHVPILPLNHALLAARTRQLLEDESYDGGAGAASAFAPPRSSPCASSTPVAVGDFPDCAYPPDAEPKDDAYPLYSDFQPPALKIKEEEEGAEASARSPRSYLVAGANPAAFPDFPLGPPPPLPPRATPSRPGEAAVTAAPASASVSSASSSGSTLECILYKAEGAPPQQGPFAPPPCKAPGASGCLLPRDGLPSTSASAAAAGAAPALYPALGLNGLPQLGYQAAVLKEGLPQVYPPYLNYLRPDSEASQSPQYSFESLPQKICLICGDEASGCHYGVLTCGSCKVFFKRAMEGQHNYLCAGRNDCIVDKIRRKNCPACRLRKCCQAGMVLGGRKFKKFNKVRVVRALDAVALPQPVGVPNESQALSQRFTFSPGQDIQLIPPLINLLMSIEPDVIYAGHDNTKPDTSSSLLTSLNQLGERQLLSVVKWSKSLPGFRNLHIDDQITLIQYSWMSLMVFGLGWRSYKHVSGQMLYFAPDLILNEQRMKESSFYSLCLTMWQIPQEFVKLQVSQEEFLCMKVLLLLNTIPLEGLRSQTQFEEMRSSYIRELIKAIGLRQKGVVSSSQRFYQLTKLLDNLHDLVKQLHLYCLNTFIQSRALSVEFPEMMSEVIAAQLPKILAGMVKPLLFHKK", "details": "relative to the synthetic analogue ORG2058; cited from earlier work"}, "[6]": {"details": "1 nM ORG2058, in one or both cell lines (T-47D, HCC1428)"}}}
{"smiles": "CN(C)c1ccc([C@H]2C[C@]3(C)[C@@H](CC[C@]3(O)CCCO)[C@@H]3CCC4=CC(=O)CCC4=C32)cc1", "note": "[onapristone, (8S,11R,13R,14S,17S)-11-[4-(dimethylamino)phenyl]-17-hydroxy-17-(3-hydroxypropyl)-13-methyl-1,2,6,7,8,11,12,14,15,16-decahydrocyclopenta[a]phenanthren-3-one]", "values": [{"measurement": "PR binding in the presence of onapristone alone", "setting": "[1]; 100 nM onapristone alone, mainly in T-47D cells", "result": "PR binding to some targets"}, {"measurement": "Effect of onapristone on ORG effects (preliminary experiments)", "setting": "[1]; 100 nM onapristone with 1 nM ORG2058, cell line of preliminary experiments not stated", "result": "ablated"}, {"measurement": "PR binding regions with attenuation of ORG2058-liganded PR binding by onapristone confirmed", "setting": "[1]; T-47D, 100 nM onapristone + 1 nM ORG2058, ten regions tested", "result": "9 of the 10 and attenuated"}, {"measurement": "PR binding regions with attenuation of ORG2058-liganded PR binding by onapristone confirmed", "setting": "[2]; 100 nM onapristone + 1 nM ORG2058, ten regions tested", "result": "9 of the 10 and attenuated"}, {"measurement": "Genes whose progestin regulation was not ablated by onapristone", "setting": "[3]; T-47D, onapristone with 1 nM ORG2058", "result": 5, "unit": "genes"}, {"measurement": "Genes whose progestin regulation was not ablated by onapristone", "setting": "[4]", "result": 6, "unit": "genes"}]}
{"smiles": "CC(=O)[C@H]1CC[C@H]2[C@@H]3CCC4=CC(=O)CC[C@]4(C)[C@H]3CC[C@]12C", "note": "[progesterone]", "values": [{"measurement": "Dissociation from PR compared with ORG2058", "setting": "[5]", "result": "more rapidly"}]}
{"smiles": "CC[C@@H]1C[C@H]2[C@@H]3CCC4=CC(=O)CC[C@@H]4[C@H]3CC[C@]2(C)[C@H]1C(=O)CO", "note": "[ORG2058, (8R,9S,10R,13S,14S,16R,17S)-16-ethyl-17-(2-hydroxyacetyl)-13-methyl-2,6,7,8,9,10,11,12,14,15,16,17-dodecahydro-1H-cyclopenta[a]phenanthren-3-one]", "values": [{"measurement": "ORG effects at the concentration used (preliminary experiments)", "setting": "[1]; 1 nM ORG2058, cell line of preliminary experiments not stated", "result": "maximal"}, {"measurement": "PR binding regions with binding by ORG2058-liganded PR confirmed", "setting": "[1]; T-47D, 1 nM ORG2058, ten regions tested", "result": "9 of the 10"}, {"measurement": "PR binding regions with binding by ORG2058-liganded PR confirmed", "setting": "[2]; 1 nM ORG2058, ten regions tested", "result": "9 of the 10"}, {"measurement": "Differentially expressed probes", "setting": "[3]; [6]", "result": 309, "unit": "probes"}, {"measurement": "Genes regulated", "setting": "[3]; [6]", "result": 267, "unit": "genes"}]}
